In PMC9273935, “Cooperative Binding of Substrate and Ions Drives Forward Cycling of the Human Creatine Transporter-1” (Frontiers in Physiology, 2022):

Key:
[1] = biological target: T1, human creatine transporter-1 (CRT-1, SLC6A8), C-terminally YFP-tagged (Homo sapiens, UniProt P48029); assay: whole-cell patch clamp, substrate-induced transport current in transfected HEK293 cells; assay type: cell-based
T1 construct: full-length cDNA in pEYFP-N1, C-terminal YFP tag, transiently expressed in HEK293 cells; oligomeric state not known
T1 sequence (P48029 1-635): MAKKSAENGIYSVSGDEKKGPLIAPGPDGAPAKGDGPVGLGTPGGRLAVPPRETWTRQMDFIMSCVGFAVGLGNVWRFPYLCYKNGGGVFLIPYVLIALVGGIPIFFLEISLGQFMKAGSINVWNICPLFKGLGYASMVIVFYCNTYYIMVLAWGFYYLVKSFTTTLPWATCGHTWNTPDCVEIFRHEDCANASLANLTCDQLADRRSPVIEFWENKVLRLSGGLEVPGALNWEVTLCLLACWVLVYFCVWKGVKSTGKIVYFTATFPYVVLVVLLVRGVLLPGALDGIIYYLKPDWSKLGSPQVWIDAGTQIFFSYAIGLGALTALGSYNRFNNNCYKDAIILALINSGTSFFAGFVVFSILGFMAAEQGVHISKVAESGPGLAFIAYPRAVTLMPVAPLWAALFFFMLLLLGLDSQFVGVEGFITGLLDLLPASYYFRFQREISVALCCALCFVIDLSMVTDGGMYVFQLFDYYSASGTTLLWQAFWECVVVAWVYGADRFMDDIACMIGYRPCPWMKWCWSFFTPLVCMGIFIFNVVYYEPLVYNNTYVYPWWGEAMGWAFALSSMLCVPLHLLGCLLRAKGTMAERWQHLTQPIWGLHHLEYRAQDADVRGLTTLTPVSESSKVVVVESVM

[2] = biological target: T1, human creatine transporter-1 (CRT-1, SLC6A8), C-terminally YFP-tagged; assay: inhibition of [3H]creatine uptake in transfected HEK293 cells; assay type: cell-based

Row | SMILES | EC50 [1] | IC50 [2]
1 | NC1=NCC(C(=O)O)CN1 (centres unmarked) [ATPCA, 2-amino-1,4,5,6-tetrahydropyrimidine-5-carboxylic acid] | 103 ± 4 µM | 105 ± 6.7 µM
2 | NC1=NCCN1CC(=O)O [cyclocreatine] | 162 ± 8.49 µM | 167 ± 9.9 µM
3 | N=C(N)NCCC(=O)O [β-guanidinopropionic acid] | 13.2 ± 0.73 µM | 18.8 ± 1.1 µM
4 | CN(CC(=O)O)C(=N)N [creatine] | 34.8 ± 1.9 µM | 48.4 ± 7 µM
